According to patent EP4310093A1, “AMINO ACID DERIVATIVE, PREPARATION METHOD THEREFOR, AND PHARMACEUTICAL COMPOSITION FOR TREATING HEPATITIS, COMPRISING SAME” (priority 2021, dated 2022):

Target: T1, NTCP (Homo sapiens, UniProt Q14973)
T1 construct: expressed in transfected cells; host or cells: HepG2-hNTCP-C4
T1 sequence (Q14973 1-349): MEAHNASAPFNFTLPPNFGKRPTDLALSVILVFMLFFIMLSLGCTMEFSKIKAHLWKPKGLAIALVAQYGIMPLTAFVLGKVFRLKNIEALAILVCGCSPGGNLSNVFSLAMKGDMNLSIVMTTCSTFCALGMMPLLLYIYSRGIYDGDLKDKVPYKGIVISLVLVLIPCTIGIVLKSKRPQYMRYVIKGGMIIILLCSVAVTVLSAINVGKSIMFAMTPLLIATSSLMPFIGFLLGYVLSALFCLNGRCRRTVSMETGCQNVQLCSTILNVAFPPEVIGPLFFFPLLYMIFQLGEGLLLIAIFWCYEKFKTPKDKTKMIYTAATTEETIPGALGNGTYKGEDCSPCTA
Experiment: Inhibition of the binding between PreS1 (FITC-labelled) and NTCP expressing cell lines, flow cytometry
Conditions: for activity at 50 µM: 2 h, read-out: relative fluorescence intensity compared to the HBV-induced group (HBV PreS1) solely treated with PreS1, 50 µM compound, 20 nM PreS1, HepG2-hNTCP-C4 cell line, 4°C, 2 hours, the lower the value, the more inhibited the binding
Experimental: HepG2-hNTCP-C4 cell line, a cell line expressing NTCP, was seeded in a 6 well plate at a density of 2×10^5/well and incubated at 4°C for 30 minutes when the confluency reached 80% after overnight incubation for 2 days. Thereafter, 20 nM PreS 1 (Myr-[…]-Lys(FITC)) and the compounds in Example 1, Examples 38 to 56 or the compound in Comparative Example 1 were treated by diluting in culture media at 4°C at a concentration of 50 µM respectively, and the media was suctioned after 2 hours, followed by washing 3 times with 4°C PBS. In order to take the cells off from the plate, 500 µl of 0.5 mM EDTA PBS solution was treated, and then incubation was performed at 37°C for 15 minutes to check whether the cells fell off through an optical microscope. After taking off the cells by pipetting, the cells were collected in a 1.5 ml tube and centrifuged (4000 rpm, 4°C, 3 min). After suctioning the supernatant, the pellet was washed 3 times with 4°C PBS, and then green fluorescence was measured via flow cytometry. In this case, taurocholic acid (TCA), a compound known as a substrate of NTCP to reduce the entry of HBV or HDV, was used as a positive control group.
In the graph at the top of FIG. 1, black (1) and red (2) indicate a negative control group with no treatment and an HBV-induced group (HBV preS1) solely treated with PreS1, respectively. Blue (HBV preS1+HBV entry inhibitor) (3) is the fluorescence value for each of Examples or Comparative Examples, evaluated that the closer to the negative control group, the more inhibited the binding between PreS1 and the NTCP cell line.
The experimental method was the same as in the Experimental Example 1-1, and 20 nM PreS1 and each compound were treated at 4 concentrations (0.2 µM, 2 µM, 10 µM, 50 µM).
With an expectation that there is a structure-activity relationship among compounds composed of bile acid and amino acids, for each of bile acids in Comparative Example 1 (lithocholic acid, LCA), Comparative Example 2 (ursodeoxycholic acid, UDCA), Comparative Example 3 (cholic acid, CA), Comparative Example 4 (hyodeoxycholic acid, HDCA), Comparative Example 5 (deoxycholic acid, DCA), and Comparative Example 6 (chenodeoxycholic acid, CDCA), an evaluation experiment was conducted on an ability to inhibit the binding between PreS1 and NTCP expressing cell lines, and also for Examples 1 (LCA-Ile) and Example 44 (LCA-Val) as well as the compounds in Example 2 (UDCA-Ile), Example 3 (UDCA-Val), Example 6 (CA-Ile), Example 7 (CA-Val), Example 8 (HDCA-Ile), Example 9 (HDCA-Val), Example 10 (DCA-Ile), Example 11 (DCA-Val), Example 14 (CDCA-Ile), and Example 15 (CDCA-Val) in which bile acid parts (lithocholic acid) of Example 1 (LCA-Ile) and Example 44 (LCA-Val) were substituted with other types of bile acids in Comparative Examples 2 to 6, an evaluation experiment was conducted on an ability to inhibit the binding between PreS1 and NTCP expressing cell lines. The experimental method was the same as in the Experimental Example 1-1, and 18 compounds in the Comparative Examples 1 to 6, Examples 1 to 3, Examples 6 to 11, Examples 14 to 15, and Example 44 were treated at a concentration of 50 µM along with 20 nM PreS 1. […]
In the Experimental Examples 1-4, it was determined whether there is additionally concentration dependence for Example 4 (UDCA-Trp), a compound with good inhibitory ability. […]

Structure (SMILES)	effect of inhibiting the binding between PreS1 and NTCP expressing cell lines by treatment concentration (2 µM, 10 µM, 20 µM, 50 µM compound, 20 nM PreS1)	activity at 50 µM
C[C@H](CCC(=O)N[C@@H](Cc1c[nH]c2ccccc12)C(=O)O)[C@H]1CC[C@H]2[C@@H]3[C@@H](O)C[C@@H]4C[C@H](O)CC[C@]4(C)[C@H]3CC[C@]12C [Example 4, (S)-2-((R)-4-((3R,5S,7S,8R,9S,10S,13R,14S,17R)-3,7-dihydroxy-10,13-dimethyl-hexadecahydro-1H-cyclopenta[a]phenanthren-17-yl)pentanamido)-3-(1H-indol-3-yl)propanoic acid]	concentration dependent	–
C[C@H](CCC(=O)N1CCCC1C(=O)O)[C@H]1CC[C@H]2[C@@H]3CC[C@@H]4C[C@H](O)CC[C@]4(C)[C@H]3CC[C@]12C (stereo partly drawn) [Example 38, 1-((R)-4-((3R,5R,8R,9S,10S,13R,14S,17R)-3-hydroxy-10,13-dimethyl-hexadecahydro-1H-cyclopenta[a]phenanthren-17-yl)pentanoyl)pyrrolidine-2-carboxylic acid]	–	≤ 20%
C[C@H](CCC(=O)N[C@@H](CS)C(=O)O)[C@H]1CC[C@H]2[C@@H]3CC[C@@H]4C[C@H](O)CC[C@]4(C)[C@H]3CC[C@]12C [Example 40, (R)-2-((R)-4-((3R,5R,8R,9S,10S,13R,14S,17R)-3-hydroxy-10,13-dimethyl-hexadecahydro-1H-cyclopenta[a]phenanthren-17-yl)pentanamido)-3-mercaptopropanoic acid]	–	≤ 20%
CC(C)C[C@H](NC(=O)CC[C@@H](C)[C@H]1CC[C@H]2[C@@H]3CC[C@@H]4C[C@H](O)CC[C@]4(C)[C@H]3CC[C@]12C)C(=O)O [Example 47]	–	≤ 20%
CSCC[C@H](NC(=O)CC[C@@H](C)[C@H]1CC[C@H]2[C@@H]3CC[C@@H]4C[C@H](O)CC[C@]4(C)[C@H]3CC[C@]12C)C(=O)O [Example 48, (S)-2-((R)-4-((3R,5R,8R,9S,10S,13R,14S,17R)-3-hydroxy-10,13-dimethyl-hexadecahydro-1H-cyclopenta[a]phenanthren-17-yl)pentanamido)-4-(methylthio)butanoic acid]	–	≤ 20%
